Common to all, as to type: in vivo
Assay [1] has as its system tetranychus telarius Linnaeus and wheat aphid. As to the kind of experiment: Overall comparison of efficacy and dosage with compound I from Tables 1 and 2. To be noted: Tables 1 and 2, in words. An excerpt: (§1) Take the robust mature female mites, and paste the back of the mite on a piece of glass with a transparent adhesive tape. Every piece of glass pasted with 40 mites, and three pieces of glasses for each concentration, each insecticide repeated three times at five concentration. […] Immerse the above glasses in a insecticidal solution of specified concentration for 5 seconds and take out from the solution. Use a piece of absorbent paper to absorb the surplus insecticidal solution, transfer the above treated glasses to a culture dish previously fitted with a wetted cotton wool. The culture dish is kept in a thermostat oven at 28° C. for 48 hours, and inspect the number of dead mites under binocular dissecteined microscope. Standard for death judgement: use a needle to move the body of the mite, wholly inflexible judged as death.
(§2) Weigh third instar larva on a swift electronic balance to obtain 8-18 mg/larva, and 0.083 μl of the insecticide solution in acetone at specified concentration with a microsyringe to the dorsal thorax of the larva, and then transfer the larva into a finger-type tube charged with artificial fodder, each tube for one larva, each concentration for 30 tubes, each insecticide run at 5 concentrations, and repeat 3 times. Place the tubes in a thermostat oven at 27° C. for 48 hours, and inspect the number of dead larva. Standard for death judgement: judge the wholly inflexible test aphid as death.
The compound A and Ib are 2.11 times and 1.78 times as toxic as compound I against tetranychus telarius Linnaeus, and are 1.95 times and 1.88 times as toxic as compound I against wheat aphid respectively. Therefore compound Ia has the preferred effect, and the dosage needed is the lowest; the next one are A and compound Ib.

In assay [2] the test system is tetranychus telarius Linnaeus. Nature of the assay: Laboratory toxicity test against tetranychus telarius Linnaeus (Pasting Method). To be noted: for LC50 / LC90: mature female mites, glass slide immersion 5 seconds, time 24 (hour); for times as toxic as compound I against tetranychus telarius Linnaeus: relative to compound I, from Table 1.
Source text: 1. Laboratory toxicity test against tetranychus telarius Linnaeus
(1) Method of manipulation: (Pasting Method)
as §1, with “The culture dish is kept in a thermostat oven at 28° C. for 48 hours, and inspect the number of dead mites under binocular dissecteined microscope.” left out

A further assay concerns wheat aphid. As to the kind of experiment: Laboratory toxicity test against wheat aphid (Topic application method). To be noted: for times as toxic as compound I against wheat aphid: relative to compound I, from Table 2; for LD50: third instar larva, topical 0.083 μl in acetone, 27° C., 48 hours. Here is the method: as §2, with “2. Laboratory toxicity test against wheat aphid (1) Method of manipulation (Topic application method) Weigh” for “Weigh”

This note sets out measurements from patent publication US5886207A, “Optically active compound of flubrocythrinate, a process for preparing the same” (Shanghai Zhongxi Pharmaceutical Co. Ltd., priority 1994, dated 1999).

The term LC50 denotes the concentration lethal to half of the exposed cells or organisms.

As to `CC(C)[C@H](C(=O)O[C@H](C#N)c1cccc(Oc2ccc(Br)cc2)c1)c1ccc(OC(F)F)cc1` (relative stereo) [A], in assay [1], the “dosage compared with compound I” value was “lower than that of compound I” and the “efficacy compared with compound I” value is given as “apparently better than compound I”. Further, in assay [2], the 50% lethal concentration (LC50) was 10 ppm, the LC90 came out at 110 ppm and the “times as toxic as compound I against tetranychus telarius Linnaeus” value (from here on “times … against tetranychus telarius Linnaeus”) came out at 2.11 times. For the same compound, in the assay on wheat aphid, the “times as toxic as compound I against wheat aphid” value (“times … against wheat aphid” below) is on record as 1.95 times and the LD50 is 0.0003712 μg/larva.
Regarding `CC(C)[C@H](C(=O)O[C@H](C#N)c1cccc(Oc2ccc(Br)cc2)c1)c1ccc(OC(F)F)cc1` [Ia, (S)-α-Cyano-3-(4-bromophenoxy)benzyl-(S)-2-(4-difluoromethoxyphenyl)-3-methylbutyrate], in assay [1], the “dosage compared with compound I” value is reported as “lower than that of compound I” and the “efficacy compared with compound I” value is “apparently better than compound I”. In assay [2], the LC50 turned out to be 4 ppm, the LC90 is 52 ppm and the “times … against tetranychus telarius Linnaeus” value is recorded as 4.46 times. In addition, in the assay on wheat aphid, the “times … against wheat aphid” value was 4.06 times and the LD50 is given as 0.0001783 μg/larva.
Take `CC(C)[C@H](C(=O)O[C@@H](C#N)c1cccc(Oc2ccc(Br)cc2)c1)c1ccc(OC(F)F)cc1` [Ib, (R)-α-Cyano-3-(4-bromophenoxy)benzyl-(S)-2-(4-difluoromethoxyphenyl)-3-methylbutyrate]: in assay [1], the “dosage compared with compound I” value is “lower than that of compound I” and the “efficacy compared with compound I” value is recorded as “apparently better than compound I”. In addition, in assay [2], the LC50 was determined as 12 ppm, the LC90 is given as 130 ppm and the “times … against tetranychus telarius Linnaeus” value is 1.78 times. In the assay on wheat aphid, the “times … against wheat aphid” value is recorded as 1.88 times and the LD50 amounted to 0.000385 μg/larva.
For the compound `CC(C)[C@@H](C(=O)O[C@H](C#N)c1cccc(Oc2ccc(Br)cc2)c1)c1ccc(OC(F)F)cc1` [Ic], in assay [2], the LC50 is listed as 220 ppm and the LC90 turned out to be 2580 ppm. This compound displayed an LD50 in the assay with wheat aphid of 0.009252 μg/larva.
On the same counts, the results for `CC(C)[C@@H](C(=O)O[C@@H](C#N)c1cccc(Oc2ccc(Br)cc2)c1)c1ccc(OC(F)F)cc1` [Id, (R)-α-Cyano-3-(4-bromophenoxy)benzyl (R)-2-(4-difluoromethoxyphenyl)-3-methylbutyrate] are 1200 ppm, 8000 ppm and 0.05047 μg/larva.
On the same counts, the results for `CC(C)C(C(=O)OC(C#N)c1cccc(Oc2ccc(Br)cc2)c1)c1ccc(OC(F)F)cc1` (stereo not drawn) [compound I, α-cyano-3-(4-bromophenoxy) benzyl-2-(4-difluoromethoxyphenyl)-3-methylbutyrate, reference compound] are 19 ppm, 232 ppm and 0.0007247 μg/larva.
